Assays:
Spodoptera littoralis [1] = assay: Antifeedant activity against Spodoptera littoralis assessed as inhibition of diet consumption at 20 ug/cm2 by leaf disk choice assay relative to control; format: functional; conditions: foliar
Spodoptera littoralis [2] = assay: Antifeedant activity against Spodoptera littoralis assessed as inhibition of diet consumption by leaf disk choice assay relative to control; format: functional

CC1=C(CO)C(=O)O[C@@H]([C@@H](C)[C@H]2CC[C@H]3[C@@H]4C[C@H]5O[C@]56CC=CC(=O)[C@]6(C)[C@H]4CC[C@]23C)C1 [JABOROSALACTONE A]
inhibition at 20 µg/cm2 (Spodoptera littoralis [1]): 74%

CC1=C(CO)C(=O)O[C@@H]([C@@H](C)[C@H]2CC[C@H]3[C@@H]4C[C@@H](O)[C@@]5(O)CC=CC(=O)[C@]5(C)[C@H]4CC[C@]23C)C1 [JABOROSALACTONE D]
inhibition (INH) (Spodoptera littoralis [2]): -19%

CC1=C(CO)C(=O)O[C@@H]([C@@H](C)[C@H]2CC[C@H]3[C@@H]4C[C@@H](O)C5=CC=CC(=O)[C@]5(C)[C@H]4CC[C@]23C)C1 [JABOROSALACTONE B]
inhibition (INH) (Spodoptera littoralis [2]): 19%
